In article PMC6874530, “Structural analysis identifies an escape route from the adverse lipogenic effects of liver X receptor ligands” (Communications Biology, 2019):
Where two headings read alike, the source gives them in different places.

Key:
Abca1 mRNA in intestine = test: intestinal Abca1 mRNA induction in C57BL/6 mice (Emax model); type: in vivo, mouse; conditions: for ED50: Mus musculus
Experimental: All procedures involving animals were conducted in accordance with accepted standards of good animal practice and approved by the respective local animal ethics committees (Gothenburg region Local Ethics Review Committee on Animal experiments and University of Virginia Animal Care and Use Committee). Male C57BL/6JOlaHsd mice were retrieved from Harlan Laboratories (Horst, The Netherlands) around 7 weeks of age. In the studies with BMS-852907, male 8-week C57BL/6J mice (Jackson Laboratories) were used. Mice were given ad libitum access to water and standard rodent chow during the studies.
Solid compounds were solubilized in PEG400/Ethanol/Solutol/Water solution (36.3/9.1/4.6/50%). Compounds were given daily by oral gavage, 5 ml kg^−1, at doses ranging from 0.1 to 100 μmol kg^−1 of body weight for 4 days. Animals were terminated 3 h after the last dose.
(§1) At termination, the whole-blood volume was drawn from isoflurane-anesthetized mice via an incision in the carotid artery into EDTA blood tubes (S-Monovette®, EDTA KE/1.3 mL, Sarstedt, Nümbrecht, Germany or BD Microtainers®, Benton, Dickinson and Company, Franklin Lakes, New Jersey, USA). Blood samples were placed on ice and centrifuged within an hour (15 min, 2500 × g, 4 °C or 5 min, 16000 × g, 4 °C). The plasma was then dispensed in separate tubes and kept at −80 °C for later analysis of compound concentration and TG levels. For the analysis of intestinal Abca1 transcript levels, a 3–5-mm long segment of the duodenum was excised and cleared from any gut contents. Tissues were instantly snap frozen in liquid nitrogen and stored at −80 °C.
Snap-frozen intestinal tissues were quickly disrupted in QIAzol® (Qiagen, Hilden, Germany) or PureZOL™ (Bio-Rad Laboratories, Hercules, California, USA) by using a bead tissue homogenizer. Lysates were mixed with chloroform and centrifuged at 6000 × g for 15 min at 4 °C. Total RNA was purified from the upper aqueous phase on the ABI PRISM™ 6100 Nucleic Acid PrepStation (Applied Biosystems, Foster City, USA) or by using the RNeasy kit® (QIAGEN Sciences Inc., Germantown, Maryland, USA) including on-column DNase treatment by using the respective manufacturer’s protocol and reagents. Concentration of total RNA was determined on a NanoDrop™ ND-100 Spectrophotometer (Saveen Werner, Lögstrup, Sweden). The RNA templates were transferred to cDNA by reverse transcription by using the High-Capacity cDNA Reverse Transcription Kit (Applied Biosystems, Foster City, USA) according to the manufacturer’s protocol. Mouse ATP-binding cassette subfamily A member 1 (Abca1) was analyzed by using the forward primer 5′-[…]-3′, reverse primer 5′-[…]-3′, and the dual-labeled probe 5′-6FAM-[…]-TAMRA-3′. Mouse ribosomal protein large P0 (Rplp0, 36b4) was analyzed by using the forward primer 5′-[…]-3′, reverse primer 5′-[…]-3′, and the FAM-labeled probe 5′-[…]-TAMRA-3′. In the study with BMS-852907, RT-qPCR reactions were carried out in separate triplicate wells for Abca1 and Rplp0, respectively, by using 20 ng of cDNA template, 385 nM of the above-mentioned primers, and iQ™ SYBR Green Supermix (Bio-Rad, Hercules, California, USA) on a Bio-Rad MyiQ instrument (Bio-Rad, Hercules, California, USA). In the other studies, 400 nM Abca1 forward and reverse primers, 200 nM Abca1 probe, 200 nM Rplp0 forward and reverse primers, and 100 nM Rplp0 probe were mixed with 15 ng of cDNA template and TaqMan™ Gene Expression Master Mix (Applied Biosystems, Foster City, USA). The RT-qPCR reactions were performed on a 7500 Real-time PCR system (Applied Biosystems, Foster City, USA). Cycle threshold values (Ct) were retrieved from the instrument software. Relative changes in mRNA expression were calculated by using the comparative cycle method (2^−ΔΔCt). […]

plasma triglycerides [1] = test: plasma TG induction in C57BL/6 mice vs plasma compound concentration (log-linear model); type: in vivo, mouse; conditions: for TG induction in plasma m (scaling factor) / TG induction in plasma C2, drug concentration corresponding to a twofold increase in TG levels: (% RSE); for TG induction in plasma Attributed class: mouse, in vivo
Experimental: Male C57BL/6JOlaHsd mice were retrieved from Harlan Laboratories (Horst, The Netherlands) around 7 weeks of age. […] Mice were given ad libitum access to water and standard rodent chow during the studies.
Compounds were given daily by oral gavage, 5 ml kg^−1, at doses ranging from 0.1 to 100 μmol kg^−1 of body weight for 4 days. Animals were terminated 3 h after the last dose.
as §1
Plasma triglyceride levels were analyzed by using the Triglycerides/Glycerol Blanked reagent kit (Roche Diagnostics GMBH, Mannheim, Germany). Samples were measured on an ABX Pentra 400 instrument (Horiba Medical, Irvine, California, USA) or Cobas Mira plus instrument (Roche Diagnostics Corporation, Indianapolis, USA). […] Absorbance was measured by using a Tecan Infinite M200 plate reader (Tecan Austria GmbH, Salzburg, Austria).
About 25 µL of plasma was precipitated with 150 µL of cold acetonitrile containing 0.2% formic acid. […] Sample analysis was performed by using a reversed-phase high-pressure liquid chromatography system coupled to a Quattro Ultima triple-quadrupole mass spectrometer (Waters, UK). A rapid 2-min 4–90% (vol/vol) acetonitrile (containing 0.2% formic acid) gradient was used for chromatographic separation.
To rank the compounds, the drug concentration (C2) needed to generate a twofold increase in plasma TG was estimated by rearranging Eq. (2):3 C2=exp^2fold−BL−1/m^1/γ

plasma triglycerides [2] = test system: plasma triglycerides; set-up: method as in van der Hoorn et al. 2011; conditions: AZ876 high dose 20 µmol·kg−1·day−1, GW3965 at a similar dose; ref van der Hoorn et al. 2011; cited from earlier work
[3] = po, read-out: Abca1 mRNA induction in intestine Attributed class
[4] = oral gavage daily for 4 days, C57BL/6 mice, (% RSE), read-out: Abca1 mRNA induction in intestine ED50

| SMILES | ED50 (Abca1 mRNA in intestine; [3]) | ED50 (Abca1 mRNA in intestine; [4]) | TG induction in plasma m (scaling factor) (plasma triglycerides [1]) | TG induction in plasma Attributed class (plasma triglycerides [1]) | TG induction in plasma C2, drug concentration corresponding to a twofold increase in TG levels (plasma triglycerides [1]) | increase of plasma triglyceride levels (plasma triglycerides [2]) | class of intestinal Abca1 induction (Abca1 mRNA in intestine) |
| --- | --- | --- | --- | --- | --- | --- | --- |
| CC(C)(C)N1C(=O)C(Nc2ccc(N3CCCCC3)cc2)=C(c2ccccc2)S1(=O)=O [AZ876] | ≤ 11.3 µmol/kg | 0.956 µmol/kg | 3.44 (49) | Lipogenic | 0.269 (93) μM | 110% | – |
| O=C(O)Cc1ccc(COc2cccc(-c3c(Cc4ccccc4)cnc4c(C(F)(F)F)cccc34)c2)cc1 [WAY-254011, reference compound] | ≤ 11.3 µmol/kg | < 30 µmol/kg | 1.94 (4) | Lipogenic | 0.794 (8) μM | – | high ABCA1 |
